Consider 15 molecules from ChEMBL document CHEMBL2029292, “Identification of novel adenosine A(2A) receptor antagonists by virtual screening” (J Med Chem, 2012).

The target in one assay is Adenosine receptor A2a (Homo sapiens, UniProt P29274). As to the kind of experiment: Displacement of [3H]ZM241385 from human A2A receptor expressed in HEK293 cells after 1 hr by liquid scintillation counting. The format is cell-based. (In general: Loss of bound radioactivity is the signal in a displacement assay; it reports binding, not function.)
Sequence of Adenosine receptor A2a (P29274 whole entry): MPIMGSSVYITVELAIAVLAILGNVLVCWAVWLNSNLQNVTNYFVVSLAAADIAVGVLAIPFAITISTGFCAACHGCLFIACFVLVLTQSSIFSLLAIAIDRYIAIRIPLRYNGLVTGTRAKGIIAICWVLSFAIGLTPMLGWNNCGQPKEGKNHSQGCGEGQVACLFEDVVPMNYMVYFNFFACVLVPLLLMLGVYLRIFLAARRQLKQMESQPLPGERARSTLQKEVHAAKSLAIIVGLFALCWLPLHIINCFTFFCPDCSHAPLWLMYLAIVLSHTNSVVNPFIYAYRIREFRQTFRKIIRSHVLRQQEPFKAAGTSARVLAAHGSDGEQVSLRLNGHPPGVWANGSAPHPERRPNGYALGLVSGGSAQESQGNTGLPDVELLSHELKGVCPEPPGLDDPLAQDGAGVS
A further assay deals with HEK293. As to the kind of experiment: Selectivity ratio of Ki for human A1 receptor expressed in CHO cells to Ki for human A2A receptor expressed in HEK293 cells. The format is cell-based.

The term Ki denotes the dissociation constant of the complex between target and ligand, obtained from inhibition or displacement. Higher therefore signals weaker binding.

For `COc1ccc(N2CC(C(=O)NC(Cc3ccccc3)C(=O)O)CC2=O)cc1` (stereo unspecified), the Ki on Adenosine receptor A2a is 2950 nM. This lies in the single-digit micromolar range.

On Adenosine receptor A2a, `COCCN1C(=O)c2[nH]nc(-c3ccccc3O)c2C1c1ccc(F)cc1` (stereo unspecified) showed a Ki of 1230 nM.

Take `Nc1cccc(CC2SC(=O)NC2=O)c1` (stereo unspecified): the affinity at Adenosine receptor A2a corresponds to a Ki of 7080 nM.

In the case of `COC1CCN(c2cccc(-c3nc(N)nc(-c4ccccc4O)n3)c2)CC1`, the Ki at Adenosine receptor A2a was 1.58 nM. Also, the Ratio Ki in the assay with HEK293 stood at 19.

In the case of `CC(C)c1nc(N)nc(-c2ccccc2O)n1`, the Ki on Adenosine receptor A2a was 12.3 nM. Moreover, the Ratio Ki in the assay on HEK293 came to 37.

`Cc1cc(O)c(C(C)C)cc1N=C1CSC(=O)N1` showed a Ki at Adenosine receptor A2a of 1780 nM. That is a single-digit micromolar value.

Consider `NC(c1csc(Nc2nncc3ccccc23)n1)c1ccccc1Cl` (stereo unspecified), for which, on Adenosine receptor A2a, affinity was put at a Ki of 2400 nM.

For `CCc1cc2c(=O)c(-c3nc(C)cs3)coc2cc1OCC(=O)OC(C)C`, on Adenosine receptor A2a, the Ki was 15.1 nM. The Ratio Ki in the assay with HEK293 was over 100.

On to `CSc1nc2nc3c(c(O)n2n1)CN(Cc1ccccc1)CC3`, for which the Ki on Adenosine receptor A2a was 708 nM. That is a sub-micromolar value.

At Adenosine receptor A2a, `O=C(c1ccc(F)cc1)c1c[nH]c(C(=O)NCCCn2ccnc2)c1` showed a Ki of 4680 nM. Compared with the last molecule, the Ki is about 6.6-fold higher.

The molecule `CC1CC(c2ccccc2)n2nc(N3C(=O)C4CC=CCC4C3=O)nc2N1` (stereo unspecified) showed a Ki at Adenosine receptor A2a of 2000 nM.

As for `Cc1ccsc1/C=C/c1nc(N)nc(-c2ccccc2O)n1`, the affinity on Adenosine receptor A2a, expressed as Ki, was 3.47 nM. In the assay on HEK293, the Ratio Ki turned out to be 9.5.

In turn, `CN1CCN(C(=O)c2cccc(-c3nc(N)nc(-c4ccccc4O)n3)c2)CC1` gave a Ki on Adenosine receptor A2a of 1.02 nM. In addition, the Ratio Ki in the assay with HEK293 amounted to 59.

Molecule `Cc1csc(-c2coc3cc(OCC(=O)O)cc(C)c3c2=O)n1` gave a Ki on Adenosine receptor A2a of 2240 nM. In other words, the single-digit micromolar range.

`CC(=O)Oc1cc(C)c2c(=O)c(-c3nc(C)cs3)coc2c1` showed a Ki on Adenosine receptor A2a of 33.9 nM. Moreover, in the assay with HEK293, the Ratio Ki was determined as 13.
